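Each compound was tested at five concentrations against cells in 96-well plates for 48 hours. The concentration for 50% growth inhibition is given as GI50.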 The source made the active and inactive calls. Rule as the data show it: active = GI50 up to about 1.1 µM and inactive = higher. Square brackets hold non-standard residues; d marks the D form. Peptide text beside a SMILES is read from it. * marks the point of attachment. Phe(4-NO2) = N[CH](Cc1ccc([N+](=O)[O-])cc1)C(=O)O; Cbz = O=C(OCc1ccccc1)*
Columns and labels:
Assay in all cases: inhibition of tumour cell growth, NCI panel, 48 h
786-0 = tested on: 786-0
A549 = tested on: A549
CAKI-1 = tested on: CAKI-1
COLO 205 = tested on: COLO 205
DU-145 = tested on: DU-145
HCT-15 = tested on: HCT-15
HL-60 = tested on: HL-60
Hs-578T = tested on: Hs-578T
K562 = tested on: K562
LOX IMVI = tested on: LOX IMVI
MDA-MB-231 = tested on: MDA-MB-231
MOLT-4 = tested on: MOLT-4
Malme-3M = tested on: Malme-3M
NCI-H226 = tested on: NCI-H226
OVCAR-5 = tested on: OVCAR-5
RXF 393 = tested on: RXF 393
SK-MEL-5 = tested on: SK-MEL-5
SK-OV-3 = tested on: SK-OV-3
SN12C = tested on: SN12C
UACC-62 = tested on: UACC-62

Compound	GI50 (786-0)	GI50 (A549)	GI50 (CAKI-1)	GI50 (COLO 205)	GI50 (DU-145)	GI50 (HCT-15)	GI50 (HL-60)	GI50 (Hs-578T)	GI50 (K562)	GI50 (LOX IMVI)	GI50 (MDA-MB-231)	GI50 (MOLT-4)	GI50 (Malme-3M)	GI50 (NCI-H226)	GI50 (OVCAR-5)	GI50 (RXF 393)	GI50 (SK-MEL-5)	GI50 (SK-OV-3)	GI50 (SN12C)	GI50 (UACC-62)
CCN(CC)CC[n+]1ccc2c(C)c3[nH]c4ccc(O)cc4c3c(C)c2c1	3.05 µM (inactive)	1.35 µM (inactive)	13.8 µM (inactive)	3.18 µM (inactive)	2.4 µM (inactive)	18.7 µM	2.88 µM (inactive)	0.552 µM (active)	4.06 µM (inactive)	10.8 µM (inactive)	10.6 µM (inactive)	0.0473 µM (active)	5.83 µM (inactive)	1.05 µM (active)	15.9 µM (inactive)	11.1 µM (inactive)	3.09 µM (inactive)	10.4 µM (inactive)	0.414 µM (active)	6.56 µM (inactive)
CCN1CCC(O)(C(C(=O)O)c2ccccc2)CC1 (stereo unspecified)	–	> 100 µM (inactive)	> 100 µM (inactive)	> 100 µM (inactive)	> 100 µM (inactive)	> 100 µM	> 100 µM (inactive)	> 100 µM (inactive)	> 100 µM (inactive)	> 100 µM (inactive)	> 100 µM (inactive)	–	> 100 µM (inactive)	> 100 µM (inactive)	> 100 µM (inactive)	> 100 µM (inactive)	> 100 µM (inactive)	> 100 µM (inactive)	–	> 100 µM (inactive)
N#C/C(=C/n1c(=S)[nH]c2ccc([N+](=O)[O-])cc21)C(N)=O	> 100 µM (inactive)	> 100 µM (inactive)	> 100 µM (inactive)	> 100 µM (inactive)	> 100 µM (inactive)	> 100 µM	9.33 µM (inactive)	> 100 µM (inactive)	–	> 100 µM (inactive)	> 100 µM (inactive)	> 100 µM (inactive)	> 100 µM (inactive)	> 100 µM (inactive)	> 100 µM (inactive)	> 100 µM (inactive)	> 100 µM (inactive)	> 100 µM (inactive)	> 100 µM (inactive)	> 100 µM (inactive)
COc1ccc(/C=C2\CCC(Cc3ccccc3)(CN(C)C)C2=O)cc1 (stereo unspecified)	41.7 µM (inactive)	50.5 µM (inactive)	48 µM (inactive)	37.8 µM (inactive)	> 70.8 µM (inactive)	26.7 µM	19.7 µM (inactive)	> 91.2 µM (inactive)	26.4 µM (inactive)	24.5 µM (inactive)	98.9 µM (inactive)	25 µM (inactive)	42.3 µM (inactive)	42 µM (inactive)	> 96.2 µM (inactive)	35.1 µM (inactive)	20.8 µM (inactive)	> 100 µM (inactive)	61.2 µM (inactive)	36.9 µM (inactive)
Cc1[nH]c(=O)c2oc3cc4ccccc4cc3c2c1C(=O)O	> 10 µM (inactive)	> 10 µM (inactive)	–	–	> 10 µM (inactive)	> 10 µM	> 10 µM (inactive)	> 10 µM (inactive)	–	> 10 µM (inactive)	> 10 µM (inactive)	–	> 10 µM (inactive)	> 10 µM (inactive)	> 10 µM (inactive)	> 10 µM (inactive)	–	> 10 µM (inactive)	> 10 µM (inactive)	> 10 µM (inactive)
Cc1ccc(S(=O)(=O)NC(=O)NCCc2ccc(O)c(O)c2)cc1	> 100 µM (inactive)	> 100 µM (inactive)	> 100 µM (inactive)	> 100 µM (inactive)	> 100 µM (inactive)	> 100 µM	56.5 µM (inactive)	> 100 µM (inactive)	> 100 µM (inactive)	53.6 µM (inactive)	> 100 µM (inactive)	58.2 µM (inactive)	> 100 µM (inactive)	> 100 µM (inactive)	> 100 µM (inactive)	> 100 µM (inactive)	37.2 µM (inactive)	> 100 µM (inactive)	–	> 100 µM (inactive)
COc1cccc(Nc2nc(C)c([N+](=O)[O-])c(Nc3cccc(OC)c3)n2)c1	51.9 µM (inactive)	12.1 µM (inactive)	–	13.9 µM (inactive)	9.79 µM (inactive)	18.4 µM	11.2 µM (inactive)	50.1 µM (inactive)	8.65 µM (inactive)	16.1 µM (inactive)	49.7 µM (inactive)	4.37 µM (inactive)	53.1 µM (inactive)	40.8 µM (inactive)	> 100 µM (inactive)	4.86 µM (inactive)	11.4 µM (inactive)	> 100 µM (inactive)	54.3 µM (inactive)	5.75 µM (inactive)
O=C1C(Br)=C(c2ccccc2)O/C1=C/C(=O)c1ccc(Br)cc1	18.4 µM (inactive)	–	19 µM (inactive)	> 100 µM (inactive)	> 100 µM (inactive)	89.9 µM	13 µM (inactive)	50 µM (inactive)	25.6 µM (inactive)	–	34.8 µM (inactive)	31.6 µM (inactive)	58.2 µM (inactive)	> 100 µM (inactive)	> 100 µM (inactive)	17.7 µM (inactive)	52.8 µM (inactive)	–	8.75 µM (inactive)	23.9 µM (inactive)
CC(=O)OC1CC2(C)C(OC(C)=O)CC1C2(C)C (stereo unspecified)	> 100 µM (inactive)	> 100 µM (inactive)	–	> 100 µM (inactive)	> 100 µM (inactive)	> 100 µM	> 100 µM (inactive)	> 100 µM (inactive)	> 100 µM (inactive)	> 100 µM (inactive)	> 100 µM (inactive)	> 100 µM (inactive)	> 100 µM (inactive)	> 100 µM (inactive)	> 100 µM (inactive)	> 100 µM (inactive)	> 100 µM (inactive)	> 100 µM (inactive)	> 100 µM (inactive)	> 100 µM (inactive)
O=C(C1OC1c1ccc(F)cc1)C12CC3CC(CC(C3)C1)C2 (stereo unspecified)	15.2 µM (inactive)	21 µM (inactive)	25 µM (inactive)	16 µM (inactive)	34 µM (inactive)	15.5 µM	4.04 µM (inactive)	23.2 µM (inactive)	17.6 µM (inactive)	2.85 µM (inactive)	26.5 µM (inactive)	15.8 µM (inactive)	21.3 µM (inactive)	20.2 µM (inactive)	19.6 µM (inactive)	17.7 µM (inactive)	16.5 µM (inactive)	31.1 µM (inactive)	16.4 µM (inactive)	15.2 µM (inactive)
COc1cccc2c1OC(c1ccc(Cl)cc1)C([N+](=O)[O-])=C2 (stereo unspecified)	1.84 µM (inactive)	9.82 µM (inactive)	3.48 µM (inactive)	2.19 µM (inactive)	3.68 µM (inactive)	1.81 µM	> 100 µM (inactive)	4.2 µM (inactive)	0.411 µM (active)	1.2 µM (inactive)	3.52 µM (inactive)	1.49 µM (inactive)	1.87 µM (inactive)	–	2.79 µM (inactive)	1.64 µM (inactive)	1.53 µM (inactive)	3.57 µM (inactive)	2.35 µM (inactive)	1.74 µM (inactive)
Cc1c(C(=O)OCc2ccccc2)[n+]([O-])c2cc(F)c(F)cc2[n+]1[O-]	4.58 µM (inactive)	3.2 µM (inactive)	2.15 µM (inactive)	3.61 µM (inactive)	2.41 µM (inactive)	0.583 µM	1.06 µM (active)	0.306 µM (active)	0.264 µM (active)	0.421 µM (active)	1.8 µM (inactive)	1.96 µM (inactive)	1.99 µM (inactive)	2.7 µM (inactive)	3.72 µM (inactive)	2.38 µM (inactive)	0.698 µM (active)	–	1.94 µM (inactive)	2.11 µM (inactive)
CCOC(=O)CCC(NC(=O)OCc1ccccc1)C(=O)NC(CCC(=O)OCC)C(=O)NC(CCC(=O)OCC)C(=O)NC(CCC(=O)OCC)C(=O)NC(CCC(=O)OCC)C(=O)NC(Cc1ccc([N+](=O)[O-])cc1)C(=O)NC(CCC(=O)OCC)C(=O)NC(CCC(=O)OCC)C(=O)NC(CCC(=O)OCC)C(=O)NC(CCC(=O)OCC)C(=O)NC(CCC(=O)OCC)C(=O)OCC (stereo unspecified) (Cbz-E(OEt)E(OEt)E(OEt)E(OEt)E(OEt)[Phe(4-NO2)]E(OEt)E(OEt)E(OEt)E(OEt)E(OEt)-OEt; configuration not given here)	> 50 µM (inactive)	> 50 µM (inactive)	–	> 50 µM (inactive)	> 50 µM (inactive)	> 50 µM	> 50 µM (inactive)	> 50 µM (inactive)	> 50 µM (inactive)	> 50 µM (inactive)	> 5 µM (inactive)	> 50 µM (inactive)	> 50 µM (inactive)	> 50 µM (inactive)	> 50 µM (inactive)	> 50 µM (inactive)	> 50 µM (inactive)	> 50 µM (inactive)	> 50 µM (inactive)	> 50 µM (inactive)
CC[C@@]12CCCN3CC[C@]4(c5cccc(OC)c5N(C(C)=O)[C@@H]4CC1)[C@H]32 [ASPIDOSPERMINE]	80.5 µM (inactive)	> 100 µM (inactive)	> 100 µM (inactive)	> 100 µM (inactive)	> 100 µM (inactive)	79.3 µM	20.7 µM (inactive)	23.9 µM (inactive)	–	30.6 µM (inactive)	> 100 µM (inactive)	25.3 µM (inactive)	> 100 µM (inactive)	93.8 µM (inactive)	> 100 µM (inactive)	60.4 µM (inactive)	44.3 µM (inactive)	> 100 µM (inactive)	> 100 µM (inactive)	> 100 µM (inactive)

From ChEMBL document CHEMBL1201862, “PubChem BioAssay data set” (2004)
